Reference: ChEMBL document CHEMBL4342451, “α-Glucosidase Inhibitory Isomeric Corniculatolides from the Stems of the Indian Mangrove Plant, Xylocarpus granatum” (J Nat Prod, 2020)
The source made the active and inactive calls. The rule behind the calls is not given here.

What was measured:
[1] = Inhibition of Saccharomyces cerevisiae alpha-glucosidase assessed as decrease in release of p-nitrophenol using pNPG as substrate preincubated for 15 min followed by substrate addition and measured after 5 mins by spectrophotometric method
MIA PaCa-2 = test: Cytotoxicity against human MIAPaCa2 cells assessed as reduction in cell viability at 1 to 100 uM incubated for 24 to 48 hrs by SRB assay; type: functional, cell-based
DU-145 = test: Cytotoxicity against human DU145 cells assessed as reduction in cell viability at 1 to 100 uM incubated for 24 to 48 hrs by SRB assay; type: functional, cell-based
MCF7 = test: Cytotoxicity against human MCF7 cells assessed as reduction in cell viability at 1 to 100 uM incubated for 24 to 48 hrs by SRB assay; type: functional, cell-based
HCT-116 = test: Cytotoxicity against human HCT116 cells assessed as reduction in cell viability at 1 to 100 uM incubated for 24 to 48 hrs by SRB assay; type: functional, cell-based

Row | SMILES | IC50 [1] [µM] | Activity (MIA PaCa-2) | Activity (DU-145) | Activity (MCF7) | Activity (HCT-116)
1 | COc1c(O)cc2cc1Oc1ccc(cc1)CCCOC(=O)CC2 | > 200 | inactive | inactive | inactive | inactive
2 | COc1ccc2cc1Oc1ccc(cc1)CCCOC(=O)CC2 | 65.4 | inactive | inactive | inactive | inactive
3 | COc1cc2cc(c1OC)Oc1ccc(cc1)CCC(=O)OCCC2 | 134 | inactive | inactive | inactive | inactive
4 | O=C1CCc2ccc(O)c(c2)Oc2ccc(cc2)CCCO1 [CORNICULATOLIDE A] | 187 | inactive | inactive | inactive | inactive
5 | COc1cc2cc(c1OC)Oc1ccc(cc1)CCCOC(=O)CC2 | 72.3 | inactive | inactive | inactive | inactive
6 | C[C@H]1O[C@H](O[C@H]2[C@H](O)[C@@H](O)[C@@H](O[C@H]3[C@H](O)[C@@H](O)C(O)O[C@@H]3CO)O[C@@H]2CO)[C@H](O)[C@@H](O)[C@@H]1N[C@H]1C=C(CO)[C@@H](O)[C@H](O)[C@H]1O (stereo partly specified) [ACARBOSE] | 12.2 |  |  |  | 
7 | O=C1CCc2cc(O)c(O)c(c2)Oc2ccc(cc2)CCCO1 | 24.8 | inactive | inactive | inactive | inactive
8 | O=C1CCc2ccc(cc2)Oc2cc(ccc2O)CCCO1 [ISOCORNICULATOLIDE A] | > 200 | inactive | inactive | inactive | inactive
